Assay: xn = mol fraction of the nth substance listed
Settings: Liquid, Vibrating tube method

C=C(C)C(=O)OCCN(C)C [2-(dimethylamino)ethyl methylpropenoate] + CCCO
mass density [kg/m3]
Settings | 100 kPa | 5000 kPa | 10000 kPa | 15000 kPa | 20000 kPa | 25000 kPa | 30000 kPa | 35000 kPa
293.15 K, x1 = 0.03 | 813.1 | 817.13 | 820.85 | 824.33 | 827.64 | 830.83 | 833.97 | 837.12
293.15 K, x1 = 0.0598 | 822.05 | 825.95 | 829.65 | 833.15 | 836.5 | 839.72 | 842.82 | 845.84
293.15 K, x1 = 0.0998 | 832.86 | 836.81 | 840.49 | 843.94 | 847.22 | 850.38 | 853.46 | 856.5
293.15 K, x1 = 0.1502 | 845.14 | 849.07 | 852.65 | 856.05 | 859.3 | 862.47 | 865.58 | 868.68
293.15 K, x1 = 0.2003 | 855.86 | 859.68 | 863.26 | 866.65 | 869.89 | 873.06 | 876.18 | 879.33
293.15 K, x1 = 0.2502 | 865.17 | 868.95 | 872.5 | 875.88 | 879.12 | 882.27 | 885.37 | 888.47
293.15 K, x1 = 0.3013 | 873.68 | 877.48 | 881.04 | 884.41 | 887.65 | 890.79 | 893.88 | 896.98
293.15 K, x1 = 0.3992 | 887.54 | 891.31 | 894.85 | 898.21 | 901.43 | 904.58 | 907.69 | 910.81
293.15 K, x1 = 0.4482 | 893.36 | 897.13 | 900.67 | 904.04 | 907.28 | 910.43 | 913.53 | 916.64
293.15 K, x1 = 0.4998 | 898.97 | 902.77 | 906.35 | 909.73 | 912.96 | 916.08 | 919.13 | 922.15
293.15 K, x1 = 0.5509 | 903.96 | 907.77 | 911.33 | 914.67 | 917.88 | 921 | 924.1 | 927.23
293.15 K, x1 = 0.5986 | 908.27 | 912.04 | 915.56 | 918.89 | 922.08 | 925.2 | 928.3 | 931.47
293.15 K, x1 = 0.699 | 916.1 | 919.83 | 923.35 | 926.69 | 929.91 | 933.05 | 936.14 | 939.24
293.15 K, x1 = 0.7994 | 922.7 | 926.51 | 930.05 | 933.38 | 936.55 | 939.65 | 942.73 | 945.86
293.15 K, x1 = 0.8519 | 925.73 | 929.5 | 933.03 | 936.39 | 939.61 | 942.75 | 945.87 | 949.02
293.15 K, x1 = 0.8992 | 928.25 | 931.98 | 935.56 | 938.89 | 942.14 | 945.3 | 948.43 | 951.54
293.15 K, x1 = 0.9284 | 929.69 | 933.42 | 936.97 | 940.36 | 943.63 | 946.83 | 949.98 | 953.12
293.15 K, x1 = 0.9587 | 931.16 | 934.9 | 938.45 | 941.84 | 945.11 | 948.29 | 951.43 | 954.55
303.15 K, x1 = 0.0307 | 805.44 | 809.69 | 813.63 | 817.3 | 820.75 | 824.03 | 827.2 | 830.29
303.15 K, x1 = 0.0599 | 813.96 | 818.16 | 822.06 | 825.7 | 829.13 | 832.41 | 835.6 | 838.73
303.15 K, x1 = 0.1003 | 824.72 | 828.9 | 832.79 | 836.41 | 839.84 | 843.1 | 846.24 | 849.31
303.15 K, x1 = 0.201 | 847.03 | 851.16 | 854.99 | 858.56 | 861.95 | 865.23 | 868.44 | 871.66
303.15 K, x1 = 0.3004 | 864.34 | 868.29 | 872.06 | 875.68 | 879.16 | 882.5 | 885.74 | 888.87
303.15 K, x1 = 0.4007 | 878.29 | 882.23 | 885.98 | 889.57 | 893.03 | 896.41 | 899.73 | 903.03
303.15 K, x1 = 0.4507 | 884.12 | 888.05 | 891.79 | 895.39 | 898.86 | 902.25 | 905.59 | 908.92
303.15 K, x1 = 0.4985 | 889.33 | 893.25 | 896.99 | 900.58 | 904.06 | 907.45 | 910.79 | 914.12
303.15 K, x1 = 0.5535 | 894.64 | 898.56 | 902.3 | 905.89 | 909.38 | 912.79 | 916.16 | 919.52
303.15 K, x1 = 0.5907 | 897.88 | 901.87 | 905.63 | 909.22 | 912.68 | 916.07 | 919.43 | 922.81
303.15 K, x1 = 0.7009 | 906.35 | 910.27 | 914.01 | 917.6 | 921.09 | 924.52 | 927.94 | 931.39
303.15 K, x1 = 0.8 | 912.95 | 916.83 | 920.56 | 924.17 | 927.7 | 931.16 | 934.59 | 938.01
303.15 K, x1 = 0.9043 | 918.6 | 922.52 | 926.3 | 929.96 | 933.53 | 937.03 | 940.48 | 943.91
303.15 K, x1 = 0.9269 | 919.6 | 923.57 | 927.36 | 931 | 934.55 | 938.03 | 941.51 | 945.01
303.15 K, x1 = 0.9551 | 921.07 | 924.99 | 928.75 | 932.41 | 935.97 | 939.47 | 942.94 | 946.41
313.15 K, x1 = 0.0303 | 797.13 | 801.51 | 805.58 | 809.4 | 813.02 | 816.51 | 819.93 | 823.33
313.15 K, x1 = 0.0602 | 805.6 | 809.95 | 814.02 | 817.86 | 821.5 | 825 | 828.39 | 831.72
313.15 K, x1 = 0.1007 | 816.21 | 820.42 | 824.41 | 828.2 | 831.83 | 835.35 | 838.78 | 842.17
313.15 K, x1 = 0.2003 | 838.07 | 842.22 | 846.16 | 849.93 | 853.55 | 857.04 | 860.44 | 863.76
313.15 K, x1 = 0.2989 | 854.98 | 859.16 | 863.14 | 866.94 | 870.58 | 874.08 | 877.48 | 880.8
313.15 K, x1 = 0.4005 | 869.05 | 873.2 | 877.16 | 880.94 | 884.58 | 888.1 | 891.52 | 894.87
313.15 K, x1 = 0.4513 | 875.07 | 879.17 | 883.11 | 886.91 | 890.57 | 894.1 | 897.51 | 900.82
313.15 K, x1 = 0.5026 | 880.52 | 884.58 | 888.5 | 892.29 | 895.96 | 899.51 | 902.95 | 906.3
313.15 K, x1 = 0.5521 | 885.29 | 889.39 | 893.33 | 897.12 | 900.78 | 904.32 | 907.74 | 911.06
313.15 K, x1 = 0.6025 | 889.7 | 893.77 | 897.71 | 901.52 | 905.22 | 908.79 | 912.25 | 915.59
313.15 K, x1 = 0.6976 | 897.07 | 901.19 | 905.15 | 908.97 | 912.65 | 916.22 | 919.67 | 923.02
313.15 K, x1 = 0.8037 | 903.96 | 908.07 | 912.04 | 915.87 | 919.56 | 923.14 | 926.61 | 929.99
313.15 K, x1 = 0.9043 | 909.46 | 913.62 | 917.61 | 921.46 | 925.17 | 928.79 | 932.32 | 935.78
313.15 K, x1 = 0.933 | 910.82 | 914.96 | 918.95 | 922.81 | 926.56 | 930.22 | 933.79 | 937.29
313.15 K, x1 = 0.9605 | 912.22 | 916.36 | 920.35 | 924.21 | 927.96 | 931.63 | 935.23 | 938.78

From the NIST ThermoML archive (doi:10.1021/acs.jced.8b00975)
